Data on 39 compounds can be found in ChEMBL document CHEMBL3886653, “Cytomegalovirus inhibitor compounds” (2016).

The first assay addresses T1, DNA polymerase catalytic subunit (Human cytomegalovirus (strain AD169) (HHV-5) (Human herpesvirus 5), UniProt P08546).
T1 sequence (P08546 whole entry): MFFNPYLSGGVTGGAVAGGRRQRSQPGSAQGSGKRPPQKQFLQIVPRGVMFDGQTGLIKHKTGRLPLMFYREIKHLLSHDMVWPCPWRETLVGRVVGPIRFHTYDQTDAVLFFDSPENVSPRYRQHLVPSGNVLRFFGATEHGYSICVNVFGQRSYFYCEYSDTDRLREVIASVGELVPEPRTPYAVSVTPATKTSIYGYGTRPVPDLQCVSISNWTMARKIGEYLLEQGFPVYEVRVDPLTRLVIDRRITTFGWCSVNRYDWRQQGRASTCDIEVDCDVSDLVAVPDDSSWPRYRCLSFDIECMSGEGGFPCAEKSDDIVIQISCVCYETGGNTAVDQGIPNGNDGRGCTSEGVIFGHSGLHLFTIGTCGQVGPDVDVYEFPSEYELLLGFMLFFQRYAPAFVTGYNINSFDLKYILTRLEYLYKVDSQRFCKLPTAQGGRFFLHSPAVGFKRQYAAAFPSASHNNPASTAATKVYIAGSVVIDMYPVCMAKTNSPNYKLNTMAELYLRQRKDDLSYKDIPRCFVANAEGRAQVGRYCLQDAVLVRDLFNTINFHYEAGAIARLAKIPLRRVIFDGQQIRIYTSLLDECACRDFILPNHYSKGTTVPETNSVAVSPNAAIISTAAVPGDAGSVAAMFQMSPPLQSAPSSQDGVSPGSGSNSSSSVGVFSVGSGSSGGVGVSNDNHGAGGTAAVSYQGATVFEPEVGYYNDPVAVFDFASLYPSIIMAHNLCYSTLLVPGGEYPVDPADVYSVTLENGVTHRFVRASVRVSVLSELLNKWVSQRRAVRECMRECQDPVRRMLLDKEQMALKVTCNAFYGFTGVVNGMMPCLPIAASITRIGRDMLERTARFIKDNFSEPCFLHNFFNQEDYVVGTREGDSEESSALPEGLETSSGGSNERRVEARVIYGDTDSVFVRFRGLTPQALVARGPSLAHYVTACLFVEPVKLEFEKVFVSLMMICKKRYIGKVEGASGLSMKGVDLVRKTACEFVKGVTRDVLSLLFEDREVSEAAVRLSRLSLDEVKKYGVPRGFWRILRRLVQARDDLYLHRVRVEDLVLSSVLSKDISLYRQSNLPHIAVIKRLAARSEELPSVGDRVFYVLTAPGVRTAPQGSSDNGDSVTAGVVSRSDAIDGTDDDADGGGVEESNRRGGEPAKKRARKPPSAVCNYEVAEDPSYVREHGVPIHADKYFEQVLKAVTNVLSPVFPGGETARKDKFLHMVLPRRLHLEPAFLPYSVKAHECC
The assay can be described thus: HCMV Polymerase LANCE TR-FRET Assay: The assay conditions are the following: 10 mM HEPES pH 7.5, 25 mM KCl, 7.5 mM NaCl, 5 mM MgCl2, 0.2 mg BSA/mL, 1 mM TCEP, 1.5% glycerol, 5% DMSO, 235 nM dATP, 350 nM dCTP, 350 nM dGTP, 235 nM dTTP, 12 nM biotin-16-dUTP, 23.5 nM Dig-primer/template, 2 nM GST-UL54. The assay volume is 10 μL. Each reagent is added as follow: 4 μL a+3 μL b+3 μL c; a: compound diluted in compound dilution buffer to obtain 12.5% DMSO; b: enzyme (GST-UL54) in 10 mM Hepes pH 7.5, 25 mM KCl, 5 mM MgCl2, 25 mM NaCl, 5% Glycerol, 0.67 mg BSA/mL, 1 mM TCEP w/o DMSO (2 nM GST-UL54 is present in the assay); c: substrate in 10 mM HEPES pH 7.5, 25 mM KCl, 5 mM MgCl2, 1 mM TCEP, 783 nM dATP, 1166 nM dCTP, 1166 nM dGTP, 783 nM dTTP, 40 nM biotin-16-dUTP, 78 nM Dig-primer (5'-/Dig/AGC TCG TTT AGT GAA CC-3')/template (5'-GAGGTCAAAACAGCGTGGATGGCGTCTCCAGGCGATCTGACGGTTCACTAAACGAGCT-3') w/o DMSO. The primer and template are annealed in 10 mM Tris-HCl pH 7.5, 50 mM NaCl at a respective concentration of 50 μM. They are incubated at 95 °C. for 5 min in a dry batch block. The block is removed from the dry bath and allowed to cool to RT. Aliquots are made and stored at −20 °C. To perform the assay, 3 μL of the enzyme solution is added to columns 2-12 and 14-24. The enzyme is substituted by the blank solution (b solution without enzyme) for columns 1 and 13 (blanks). The plate is centrifuged at 200×g for 30 sec. 3 μL of substrate solution is added to each well. The plate is centrifuged at 200×g for 30 sec. Plates are incubated at 37 °C. for 30 min. 5 μL of conjugate solution is added (25 mM Hepes pH 7.5, 0.1 M NaCl, 0.25% Tween-20, 1 mg/mL BSA, 12 mM EDTA, 24 nM Sreptavidin-APC, 342 ng/mL Anti-Dig-Europium). The plates are incubated at RT for at least 120 min. The signal is read on the Envision plate reader (Perkin-Elmer) or equivalent. (In general: In TR-FRET formats the signal depends on donor and acceptor labels being close together.)
Usually IC50 stands for the concentration needed to halve the response being measured. With `CC1CN(C(=O)Cn2c(=O)c(C(=O)NCc3ccc(Cl)cc3)cc3c(-c4cnc(N)nc4)c(-c4cnn(C)c4)cnc32)C1`, the IC50 was found to be 120 nM.
On the same count and under the same terms, the value for `CC1(F)CN(C(=O)Cn2c(=O)c(C(=O)NCc3ccc(C#N)cc3)cc3cc(-c4c[nH]cn4)cnc32)C1` was 320 nM; that for `O=C(NCc1ccc(Cl)cc1)c1cc2cccnc2n(CC(=O)N2CC3(CC3)C2)c1=O` was 280 nM; that for `CN(CC(=O)O)c1ccnc2c1cc(C(=O)NCc1ccc(Cl)cc1)c(=O)n2CC(=O)N1CC(C)(C)C1` was 50 nM.
Still for that read-out and setting: the value for `Cn1cc(-c2cc3cc(C(=O)NCc4ccc(Cl)cc4)c(=O)n(CC(=O)N4CC(C)(O)C4)c3nc2N)cn1` was 110 nM.
Still for that read-out and setting: the same measure for `Cn1nccc1Cc1cnc2c(c1)cc(C(=O)NCc1ccc(Cl)cc1)c(=O)n2CC(=O)N1CC(C)(C)C1`: 65 nM; for `Cc1cc(Nc2cnc3c(c2)cc(C(=O)NCc2ccc(Cl)cc2)c(=O)n3CC(=O)N2CC(C)(C)C2)n(C)n1`: 180 nM; for `CC1CN(C(=O)Cn2c(=O)c(C(=O)NCc3ccc(Cl)cc3)cc3cc(OCC4(C#N)CC4)cnc32)C1`: 170 nM.
Turning to `NCC1CCN(C(=O)Cn2c(=O)c(C(=O)NCc3ccc(Cl)cc3)cc3cccnc32)C1` (centres undefined), the IC50 was 5600 nM.
With `COCCNc1ccnc2c1cc(C(=O)NCc1ccc(Cl)cc1)c(=O)n2CC(=O)N1CC(C)(C)C1`, the IC50 was found to be 200 nM.
Same read-out and setting: the value for `Cn1cc(-c2cnc3c(cc(C(=O)NCc4ccc(Cl)cc4)c(=O)n3CC(=O)N3CC(C)(C)C3)c2N2CC(O)C2)cn1` was 180 nM.
As to `CN(C(=O)Cn1c(=O)c(C(=O)NCc2ccc(Cl)cc2)cc2cccnc21)C1CC(O)C1` (centres undefined), the IC50 was found to be 220 nM.
On the same count and under the same terms, the value for `CCn1cc(-c2c(O)cnc3c2cc(C(=O)NCc2ccc(Cl)cc2)c(=O)n3CC(=O)N2CC(C)(C)C2)cn1` was 160 nM; that for `COc1c(-c2sc(C)nc2C)cnc2c1cc(C(=O)NCc1ccc(Cl)cc1)c(=O)n2CC(=O)N1CC(C)(C)C1` was 1200 nM.
Take `Cc1noc(C2CCN(C(=O)Cn3c(=O)c(C(=O)NCc4ccc(Cl)cc4)cc4cccnc43)C2)n1` (centres undefined): the IC50 was found to be 10000 nM.
Turning to `Cn1cnc(-c2cc3cc(C(=O)NCc4ccc(Cl)cc4)c(=O)n(CC(=O)N4CC(C)(F)C4)c3nc2N)c1`, the IC50 was determined as 77 nM.
Turning to `NC(=O)[C@@H]1C[C@H](F)CN1C(=O)CCn1c(=O)c(C(=O)NCc2ccc(Cl)cc2)cc2cccnc21`, the IC50 turned out to be 210 nM.
Same read-out and setting: the value for `Cn1cc(-c2cnc3c(c2)cc(C(=O)NCc2ccc(Cl)cc2)c(=O)n3CC(=O)N2CC(F)(CF)C2)cn1` was 59 nM.
On the same count and under the same terms, the same measure for `CC1(C)CN(C(=O)Cn2c(=O)c(C(=O)NCc3ccc(Cl)cc3)cc3c(OC[C@@H]4CCC(=O)N4)ccnc32)C1`: 62 nM.
Still for that read-out and setting: the same measure for `COc1c(-c2cnn(C)c2)cnc2c1cc(C(=O)NCc1ccc(Cl)cc1)c(=O)n2CC(=O)N1CCC(CO)C1` (centres undefined): 140 nM; for `CC(C)c1ccnc2c1cc(C(=O)NCc1ccc(Cl)cc1)c(=O)n2CC(=O)N1CC(C)(C)C1`: 200 nM; for `CC1(C)CN(C(=O)Cn2c(=O)c(C(=O)NCc3ccc(Cl)cc3)cc3c(CCN4CCC4)ccnc32)C1`: 280 nM.
As for `CN(CC(C)(C)CO)C(=O)Cn1c(=O)c(C(=O)NCc2ccc(Cl)cc2)cc2ccc(NC3CC3)nc21`, the IC50 was 970 nM.
Still for that read-out and setting: the value for `CC1(C)CN(C(=O)Cn2c(=O)c(C(=O)NCc3ccc(Cl)cc3)cc3cc(-c4nn[nH]n4)cnc32)C1` was 30 nM; that for `CC1(C)CN(C(=O)Cn2c(=O)c(C(=O)NCc3ccc(Cl)cc3)cc3cc(CN4CCNC(C(F)(F)F)C4)cnc32)C1` (centres undefined) was 74 nM; that for `CNc1ccc2cc(C(=O)NCc3ccc(Cl)cc3)c(=O)n(CC(=O)N3CC(C)(O)C3)c2n1` was 120 nM.
The same measure, in the same setting: the same measure for `CC1(C)CN(C(=O)Cn2c(=O)c(C(=O)NCc3ccc(Cl)cc3)cc3c(-c4cnc(N)nc4)ccnc32)C1`: 71 nM; for `CC1(C)CN(C(=O)Cn2c(=O)c(C(=O)NCc3ccc(Cl)cc3)cc3cc(C(=O)NCc4cnccn4)cnc32)C1`: 65 nM; for `CC(=O)NC1CCN(c2cnc3c(c2)cc(C(=O)NCc2ccc(Cl)cc2)c(=O)n3CC(=O)N2CC(C)(C)C2)C1` (centres undefined): 190 nM.
On the same count and under the same terms, the same measure for `CC1(C)CN(C(=O)Cn2c(=O)c(C(=O)NCc3ccc(Cl)cc3)cc3c(Oc4cccnc4)ccnc32)C1`: 280 nM; for `CN(CC(C)(C)CO)C(=O)Cn1c(=O)c(C(=O)NCc2ccc(Cl)cc2)cc2ccc(-c3cn[nH]c3)nc21`: 1000 nM; for `Cn1cnc(-c2cnc3c(c2)cc(C(=O)NCc2ccc(Cl)cc2)c(=O)n3CC(=O)N2CC(C)(F)C2)c1`: 120 nM.
`CS(=O)(=O)C1CN(C(=O)Cn2c(=O)c(C(=O)NCc3ccc(Cl)cc3)cc3cccnc32)C1`: the IC50 turned out to be 17000 nM.
The same measure, in the same setting: the same measure for `COc1cc(N)nc2c1cc(C(=O)NCc1ccc(Cl)cc1)c(=O)n2CC(=O)N(C)CC1(CO)COC1`: 22 nM; for `Cc1nc(-c2cnc3c(c2)cc(C(=O)NCc2ccc(Cl)cc2)c(=O)n3CC(=O)N2CC(C)(C)C2)cn1C`: 130 nM; for `COc1cc(CNC(=O)c2cc3cc(-c4cn(C)cn4)cnc3n(CC(=O)N3CC(C)(F)C3)c2=O)ccc1Cl`: 400 nM.

A further assay has as its target T1, DNA polymerase catalytic subunit. The assay can be described thus: HCMV Polymerase Scintillation Proximity Assay: The assay conditions are the following: 10 mM HEPES pH 7.5, 25 mM KCl, 7.5 mM NaCl, 5 mM MgCl2, 0.2 mg BSA/mL, 1 mM TCEP, 1.5% glycerol, 2 μM dTTP, 90 nM 3H-dTTP (minor variations in concentration are possible due to specific activity of stock), 26 nM Poly(dA)/190 nM BioTEG-dT19; 5% DMSO. The assay volume is 30 μL. Each reagent is added at a 3× conc.: 10 μL a+10 μL b+10 μL c; a: compound diluted in 10 mM Hepes pH 7.5, 25 mM KCl, 5 mM MgCl2, 1 mM TCEP with 15% DMSO; b: enzyme (GST-UL54) in 10 mM Hepes pH 7.5, 25 mM KCl, 5 mM MgCl2, 22.5 mM NaCl, 4.5% Glycerol, 0.6 mg BSA/mL, 1 mM TCEP w/o DMSO (1 nM GST-UL54 is present in the assay); c: substrate in 10 mM Hepes pH 7.5, 25 mM KCl, 5 mM MgCl2, 1 mM TCEP, 6 μM dTTP, 270 nM 3H-dTTP, 78 nM Poly(dA)/570 nM BioTEG-dT19 w/o DMSO. To perform the assay, 10 μL enzyme solution is added to columns 2-12 and 14-24. The enzyme is substituted by the blank solution (b solution without enzyme) for columns 1 and 13 (blanks). The plate is centrifuged at 200×g for 30 sec. 10 μL of substrate solution is added to each well. The plate is centrifuged at 200×g for 30 sec. The plates are incubated at 37 °C. for 40 min. To stop the reaction, 25 μL of SPA beads (5 mg/mL in 0.5 M EDTA) are added and mixed by pipetting up and down. The plates are incubated at RT for at least 15 min. 35 μL of 5 M CsCl is added to the bottom of each well. TopSeal is applied to the plate and the plate is incubated at RT for at least 90 min prior to reading. The signal is read on TopCount plate reader (Perkin-Elmer) or equivalent.
For the compound `O=C(NCc1ccc(Cl)cc1)c1cc2cccnc2n(CC(=O)N2CCCOCC2)c1=O`, the IC50 stood at 16000 nM.
Take `CC1(C)CN(C(=O)Cn2c(=O)c(C(=O)NCc3ccc(Cl)c(Cl)c3)cc3cccnc32)C1`: the 50% inhibitory concentration (IC50) turned out to be 14000 nM.
With `CC1(C)CN(C(=O)Cn2c(=O)c(C(=O)NCc3ccc(Cl)c(C(F)(F)F)c3)cc3cccnc32)C1`, the IC50 came to 38000 nM.
